Data taken from PMC4963197, “Phosphorylation acts positively and negatively to regulate MRTF-A subcellular localisation and activity” (eLife, 2016).
Like-named read-outs stand apart in the source and are kept apart here. One block for each molecule: values may come before it. Ends that are not written are not given here.

Experiments:
MRTF-A [1] = assay: MRTF-A subcellular localisation by immunofluorescence; assay type: cell-based, mouse; settings: for effect of inhibitor on TPA block of serum-induced MRTF-A nuclear accumulation / inhibition of TPA-induced MRTF-A nuclear accumulation: U0126 10 μM, Gö6976 2 μM, Gö6983 6 μM; for effect of inhibitor on TPA block of serum-induced MRTF-A nuclear accumulation: TPA then 15% FCS; for inhibition of TPA-induced MRTF-A nuclear accumulation: pretreated 20 min
Experimental: (§1) NIH3T3 cells were cultured in DMEM, 10% FCS.
(§2) For immunofluorescence ([Vartiainen et al., 2007]), NIH3T3 cells were transfected in six-well plates (150000 /well), with 50 ng pEF-Flag-MRTF-PK derivatives, 100 ng pEF-MRTF-A derivatives, 50 ng MEK-R4F, 100 ng RafER, using Lipofectamine 2000 (Invitrogen).
(§3) Data was processed using GraphPad Prism version 5.03.

MRTF-A [2] = assay: Site-specific MRTF-A phosphorylation (phosphospecific antibody immunoblot); assay type: cell-based, mouse; settings: for phosphorylation at analysed phospho-sites: 2 μM CD or 100 ng/ml TPA, sites analysed with phosphospecific antibodies; for S33 phosphorylation / S98 phosphorylation: 100 ng/ml TPA, U0126 10 μM
Experimental: as §1, §3

MRTF-A [3] = assay: MRTF-A phosphorylation (SDS-PAGE mobility, immunoblot); assay type: cell-based, mouse; settings: for inhibition of MRTF-A phosphorylation by PKC inhibitor: inhibitor pretreatment 20 min, 100 ng/ml TPA 30 min
Experimental: as §1, §3

ERK = ERK activation immunoblot; assay type: cell-based; settings: inhibitor pretreatment 20 min, 100 ng/ml TPA 30 min
Experimental: as §1, §3

PKC isoforms = settings: 2 μM Gö6976; ref Martiny-Baron et al., 1993; cited from earlier work
Experimental: as §1

[4] = system: F-actin assembly in NIH3T3 cells; assay: F- and G-actin quantitation (F:G ratio); assay type: cell-based, mouse; settings: n = 3; for effect of inhibitor on TPA inhibition of F-actin assembly: inhibitor 20 min, TPA 20 min, 15% FCS 20 min
Experimental: Cells were processed as described ([Vartiainen et al., 2007]) with modifications. G- and F-actin were detected using 0.3 μM DN'ase I-Alexa Fluor 488 conjugate and 5 U/ml Alexa Fluor 647-phalloidin (Molecular Probes). After three washes in PBS, cells were analysed using the Cellomics ArrayScan. For each experiment, six technical replicates were performed. Statistical significance of alterations in F:G ratio was estimated by one-way ANOVA (Dunnett's multiple comparison test).

MRTF-A [5] = settings: LatB; ref Vartiainen et al., 2007; cited from earlier work
[6] = system: RevΔ MRTF-A GFP derivatives (Crm1-dependent NES); assay: RevΔGFP nuclear export assay; assay type: cell-based; settings: 50 nM LMB
MRTF-SRF target genes = settings: 100 ng/ml TPA, 0.25-3 hr; n = 2
MRTF-A(2–204)-PK = MRTF-A(2–204)-PK subcellular localisation by immunofluorescence; assay type: cell-based, mouse; settings: TPA
Experimental: as §1, §2, §3

MLC2 = MLC2 S19; 100 ng/ml TPA, then 15% FCS
RhoA = settings: 100 ng/ml TPA, then 15% FCS
Experimental: RhoGTP pull-downs used Rho activation assay (Millipore) with modifications. Cells were grown in 15 cm dishes, washed twice in ice-cold TBS, scraped in 400 μl 2x lysis buffer with 16% glycerol, made to 800 μl with water, and clarified. 20 μl was retained as input, and the remainder incubated with 20 μl GST-Rhotekin for 45 min at 4°C. After three 1 ml washes with Lysis buffer, proteins were eluted with SDS loading buffer and Rho recovery assessed by immunoblotting.

MEK = settings: 10 μM U0126; ref Bain et al., 2007; cited from earlier work
Experimental: as §1

G-actin = target: T1, G-actin (Oryctolagus cuniculus, UniProt P68135); assay: Size exclusion chromatography of G-actin / Spacer1-RPEL2 peptide complexes; assay type: binding; settings: SEC, Spacer1-RPEL2 peptides; for apparent molecular mass of G-actin complex: Superdex 200, 20 mM Tris (pH 8), 100 mM NaCl; for apparent stoichiometry of G-actin binding: Superdex 200, pH 8
T1 construct: Actin was prepared as described ([Mouilleron et al., 2008]); from tissue; host or cells: rabbit skeletal muscle (own knowledge of the cited method)
Experimental: Peptides were synthesised by the London Research Institute (LRI) peptide synthesis platform. MRTF-A(94–142), FAM-MRTF-A(62–104) and FAM-MRTF-A(67–98) derivatives are as in Figure 4—figure supplement 2A. Phosphorylated 10–12 mer peptides for immunizations were centred on the phosphoacceptor site (see Table 1). Actin was prepared as described ([Mouilleron et al., 2008]).
Preparation of LatB-actin and fluorescence polarisation anisotropy assay were described ([Guettler et al., 2008]). Size exclusion chromatography was on Superdex 200 column equilibrated in 20 mM Tris (pH 8), 100 mM NaCl, 3 mM MgCl2, 0.2 mM EGTA, 0.3 mM TCEP [(tris(2-carboxyethyl)phosphine)], 5% (v/v) glycerol, calibrated with globular proteins of known molecular weight.

[7] = NIH3T3 cells, 100 ng/ml TPA, 2 μM CD or 50 nM LMB
[8] = 100 ng/ml TPA 20 min, then 15% FCS 20 min

Molecule: CC/C(=C(\c1ccc(O)cc1)c1ccc(OCCN(C)C)cc1)c1ccccc1 [4-hydroxytamoxifen]
block of serum-induced nuclear accumulation by pre-treatment (MRTF-A [1]; Raf-ER cells, 1 μM 4OHT 20 min, then 15% FCS 20 min): Only pre-treatment with TPA significantly blocked serum-induced nuclear accumulation

Molecule: C=C1[C@@H](C)[C@H]2[C@H](Cc3ccccc3)NC(=O)[C@]23[C@H](OC(C)=O)/C=C/[C@@](C)(O)C(=O)[C@@H](C)C/C=C/[C@H]3[C@@H]1O [CD, cytochalasin D]
phosphorylation at analysed phospho-sites (MRTF-A [2]): induced a gradual accumulation at all analysed sites | phosphorylation of MRTF-A/MC fusion protein (MRTF-A [3]; 2 μM CD): exhibited CD-induced phosphorylation similar to that seen in MRTF-A | ERK dependence of CD-induced MRTF-A phosphorylation (MRTF-A [3]; 2 μM CD with and without 10 μM U0126): this occurred independently of ERK | phosphorylation of MRTF-A B2A (NLS mutant) (MRTF-A [3]; 15% FCS or 2 μM CD, 10 μM U0126): could be induced by serum, but not CD | MRTF-A phosphorylation (MRTF-A [3]; [7]): also induced MRTF-A phosphorylation

Molecule: Cn1c2ccccc2c2c3c(c4c5ccccc5n(CCC#N)c4c21)CNC3=O [Gö6976]
inhibition of TPA-induced ERK activation (ERK): only the latter completely inhibited ERK activation | effect of inhibitor on TPA block of serum-induced MRTF-A nuclear accumulation (MRTF-A [1]): insensitive to U0126 and Gö6976 | inhibition of TPA-induced MRTF-A nuclear accumulation (MRTF-A [1]; 100 ng/ml TPA): sensitive to both the conventional-PKC inhibitor Gö6976 and the pan-PKC inhibitor Gö6983 | PKC isoform block (PKC isoforms): insufficient to block non-novel PKC isoforms | effect of inhibitor on TPA inhibition of F-actin assembly [4]: not by U0126 or Gö6976 | inhibition of MRTF-A phosphorylation by PKC inhibitor (MRTF-A [3]): only the latter completely inhibited ERK activation and MRTF-A phosphorylation

Molecule: COc1ccc2c(c1)c(C1=C(c3c[nH]c4ccccc34)C(=O)NC1=O)cn2CCCN(C)C [Gö6983]
inhibition of TPA-induced ERK activation (ERK): completely inhibited ERK activation | effect of inhibitor on TPA block of serum-induced MRTF-A nuclear accumulation (MRTF-A [1]): relieved by Gö6983 | inhibition of TPA-induced MRTF-A nuclear accumulation (MRTF-A [1]; 100 ng/ml TPA): sensitive to both the conventional-PKC inhibitor Gö6976 and the pan-PKC inhibitor Gö6983 | effect of inhibitor on TPA inhibition of F-actin assembly [4]: relieved by Gö6983 | inhibition of MRTF-A phosphorylation by PKC inhibitor (MRTF-A [3]): completely inhibited ERK activation and MRTF-A phosphorylation

Molecule: C/C1=C/C(=O)O[C@@H]2C[C@@H](CC[C@H](C)/C=C\CC1)O[C@@](O)([C@@H]1CSC(=O)N1)C2 [LatB, Latrunculin B]
cytoplasmic localisation of MRTF-A (MRTF-A [5]): restore cytoplasmic localisation of MRTF-A | return of serum-induced MRTF-A phosphorylation (MRTF-A [3]; NIH3T3, 15% FCS 30 min, then 1 μM LatB): rapid return of MRTF-A phosphorylation to prestimulation levels

Molecule: CCC(=C/[C@H](C)C/C=C/C(C)=C/[C@@H](C)C(=O)[C@@H](C)[C@H](O)[C@@H](C)C/C(C)=C/C(=O)O)/C=C/[C@@H]1OC(=O)C=C[C@@H]1C [Leptomycin B]
nuclear localisation of RevΔMRTF-A derivatives [6]: Nuclear localisation could be restored by serum stimulation, or by treatment with Leptomycin B (LMB) | nuclear localisation of RevΔMRTF-A derivatives ([6]; listed as LMB): both proteins accumulated in the nucleus upon LMB treatment | MRTF-A phosphorylation (MRTF-A [3]; [7]): did not induce phosphorylation unless the cells were simultaneously stimulated with CD or FCS

Molecule: CCCCCCCCCCCCCC(=O)O[C@@H]1[C@@H](C)[C@@]2(O)[C@@H](C=C(CO)C[C@]3(O)C(=O)C(C)=C[C@@H]23)[C@H]2C(C)(C)[C@]12OC(C)=O [TPA]
induction of transcription of MRTF-SRF target genes (MRTF-SRF target genes): induced transcription of MRTF-SRF target genes in an ERK-dependent manner | nuclear accumulation of MRTF-A(2–204)-PK (MRTF-A(2–204)-PK): promoted nuclear accumulation of MRTF-A(2–204)-PK | serum-induced phosphorylation of MLC2 (MLC2): inhibited serum-induced accumulation of Rho.GTP, and phosphorylation of MLC2, independently of ERK but in a PKC-dependent manner | inhibition of serum-induced MRTF-A nuclear accumulation by TPA pretreatment (MRTF-A [1]; [8]): effectively blocked MRTF-A nuclear accumulation upon subsequent serum stimulation | proportion of cells with predominantly nuclear MRTF-A (MRTF-A [1]; 100 ng/ml TPA, 20 min): substantially increased the proportion of cells with predominantly nuclear MRTF-A | S33 phosphorylation (MRTF-A [2]): could be slightly increased upon serum or TPA stimulation | S98 phosphorylation (MRTF-A [2]): by TPA in a U0126-sensitive fashion | phosphorylation at analysed phospho-sites (MRTF-A [2]): induced a gradual accumulation at all analysed sites | serum-induced F-actin assembly [4, 8]: inhibited serum-induced F-actin assembly | MRTF-A phosphorylation (MRTF-A [3]): also induced MRTF-A phosphorylation | serum-induced accumulation of Rho.GTP (RhoA): inhibited serum-induced accumulation of Rho.GTP

Molecule: N#CC(=C(/N)Sc1ccccc1N)/C(C#N)=C(/N)Sc1ccccc1N [U0126]
effect of inhibitor on TPA block of serum-induced MRTF-A nuclear accumulation (MRTF-A [1]): insensitive to U0126 and Gö6976 | MEK inhibition and selectivity (MEK): sufficient to inhibit MEK activation without substantial effects on other kinases | S33 phosphorylation (MRTF-A [2]): Induced S33 phosphorylation was U0126-sensitive | S98 phosphorylation (MRTF-A [2]): U0126-sensitive | effect of inhibitor on TPA inhibition of F-actin assembly [4]: not by U0126 or Gö6976

apparent molecular mass of G-actin complex (G-actin): 70.9 kDa | apparent stoichiometry of G-actin binding (G-actin): 1.5 actins
Molecule: S1-R2 WT: Spacer1-RPEL2 peptide (LKLKRARLADDLNEKIAQRPGPMELVEKNILPVESSLKEAIIVGQVNYP; UniProt Q8K4J6 94-142, looked up, fragment)

apparent molecular mass of G-actin complex (G-actin): 64.1 kDa | apparent stoichiometry of G-actin binding (G-actin): 1.4 actins
Molecule: S1-R2 pS98: Spacer1-RPEL2 peptide phosphorylated at S98 (LKLKRARLADDLNEKIAQRPGPMELVEKNILPVESSLKEAIIVGQVNYP; also: phosphorylated at S98, position not located in chain; UniProt Q8K4J6 94-142, looked up, fragment)
